Measurements from patent US20160206610A1, “METHODS FOR TREATING AND/OR PREVENTING EMESIS AND/OR NAUSEA INCLUDING ACUTE AND/OR DELAYED NAUSEA AND/OR ACUTE EMESIS AND/OR DELAYED EMESIS” (priority 2015, published 2016).

Assay: Fine particle fraction by Next Generation Impactor at 15 LPM (nebulizer solution)
Format: physicochemical
Conditions: Example 6: nebulizer solution, 0.125% w/w palonosetron chloride in sodium chloride/citrate buffer
Description: For a nebulizer solution for inhalation, a 0.125% w/w solution of palonosetron chloride is formulated in a pharmaceutically acceptable buffer for inhalation (0.85% sodium chloride, 0.062% sodium citrate, 0.019% citric acid in water). If tested through a Next Generation Impactor at 15 LPM, the fine particle fraction of palonosetron <4.7 microns is anticipated to be >20%.

fine particle fraction <4.7 microns: > 20%
SMILES: O=C1c2cccc3c2[C@H](CCC3)CN1[C@@H]1CN2CCC1CC2 [palonosetron]
